Experiments:
Assay type in all cases: in vivo
Conditions in all cases: 5 mg/kg oral gavage
MAGL = MAGL (Mus musculus (Mouse), UniProt O35678); test: Mouse brain proteomes from inhibitor treated mice (oral gavage, sacrifice 4 h after administration, ABPP analysis)
Summary of the method: (§1)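 Oral dosing of C57Bl/6J wild-type mice at 5 mg/kg, brain collection 4 h afterwards, then ABPP of brain proteomes to give % target inhibition.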

ABHD6 = ABHD6 (Mus musculus (Mouse), UniProt Q8R2Y0); test: Mouse brain proteomes from inhibitor treated mice (oral gavage, sacrifice 4 h after administration, ABPP analysis), ABHD6
Sequence of ABHD6 (Q8R2Y0 whole entry): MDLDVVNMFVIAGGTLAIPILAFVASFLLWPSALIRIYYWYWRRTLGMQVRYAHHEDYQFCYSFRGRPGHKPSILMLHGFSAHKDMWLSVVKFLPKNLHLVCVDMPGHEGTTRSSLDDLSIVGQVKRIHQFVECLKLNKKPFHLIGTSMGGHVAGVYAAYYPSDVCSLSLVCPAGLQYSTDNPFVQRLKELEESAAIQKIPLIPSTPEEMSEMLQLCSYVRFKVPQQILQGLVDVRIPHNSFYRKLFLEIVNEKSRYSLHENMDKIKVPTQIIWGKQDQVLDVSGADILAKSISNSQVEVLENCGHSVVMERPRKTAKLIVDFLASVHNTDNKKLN
Summary of the method: as §1

FAAH = FAAH (Mus musculus (Mouse), UniProt O08914); test: Mouse brain proteomes from inhibitor treated mice (oral gavage, sacrifice 4 h after administration, ABPP analysis), FAAH
Sequence of FAAH (O08914 whole entry): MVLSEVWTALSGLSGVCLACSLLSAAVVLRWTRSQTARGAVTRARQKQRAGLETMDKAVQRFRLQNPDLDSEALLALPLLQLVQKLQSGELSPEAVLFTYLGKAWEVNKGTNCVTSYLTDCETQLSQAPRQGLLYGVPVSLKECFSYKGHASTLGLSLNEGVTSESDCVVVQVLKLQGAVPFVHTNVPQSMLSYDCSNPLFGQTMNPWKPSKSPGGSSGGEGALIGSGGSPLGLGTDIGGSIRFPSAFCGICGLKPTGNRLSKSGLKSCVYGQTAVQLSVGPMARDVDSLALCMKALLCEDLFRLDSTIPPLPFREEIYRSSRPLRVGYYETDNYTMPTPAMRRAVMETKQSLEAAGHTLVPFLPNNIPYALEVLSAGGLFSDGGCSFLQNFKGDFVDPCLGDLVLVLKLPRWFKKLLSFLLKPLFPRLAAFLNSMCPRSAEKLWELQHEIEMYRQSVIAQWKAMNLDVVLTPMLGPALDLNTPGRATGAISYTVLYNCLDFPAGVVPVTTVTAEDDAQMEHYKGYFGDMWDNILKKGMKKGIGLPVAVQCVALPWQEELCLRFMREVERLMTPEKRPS
Summary of the method: as §1

Sequence of MAGL (O35678 whole entry): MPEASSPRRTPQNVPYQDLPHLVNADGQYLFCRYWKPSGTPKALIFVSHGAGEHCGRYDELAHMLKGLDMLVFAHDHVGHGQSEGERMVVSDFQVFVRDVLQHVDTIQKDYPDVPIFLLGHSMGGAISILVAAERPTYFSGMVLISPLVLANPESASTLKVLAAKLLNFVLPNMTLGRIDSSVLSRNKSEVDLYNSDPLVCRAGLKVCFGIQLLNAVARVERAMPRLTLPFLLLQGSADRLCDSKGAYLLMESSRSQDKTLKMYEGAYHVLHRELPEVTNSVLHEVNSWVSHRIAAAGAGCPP

MAGL % Inh 5 mg/kg (mouse) (MAGL) | ABHD6 % Inh 5 mg/kg (mouse) (ABHD6) | FAAH % Inh 5 mg/kg (mouse) (FAAH) | Compound
### (### is ≥ 75%) | ### (### is ≥ 75%) | # (# is < 25%) | O=C(O)C1CCN(c2cc(C(F)(F)F)ccc2CN2CCC3(CCN(C(=O)OC(C(F)(F)F)C(F)(F)F)CC3)C2)CC1 [Example 119, 1-(2-((8-(((1,1,1,3,3,3-Hexafluoropropan-2-yl)oxy)carbonyl)-2,8-diazaspiro[4.5]decan-2-yl)methyl)-5-(trifluoromethyl)phenyl)piperidine-4-carboxylic acid]
# (# is < 25%) | # (# is < 25%) | # (# is < 25%) | O=C(O)C1CN(c2cc(C(F)(F)F)ccc2CN2CCCC23CCN(C(=O)OC(C(F)(F)F)C(F)(F)F)CC3)CCO1 (stereo not drawn) [Example 197, 4-(2-((8-(((1,1,1,3,3,3-Hexafluoropropan-2-yl)oxy)carbonyl)-1,8-diazaspiro[4.5]decan-1-yl)methyl)-5-(trifluoromethyl)phenyl)morpholine-2-carboxylic acid]
### (### is ≥ 75%) | # (# is < 25%) | # (# is < 25%) | O=C(O)C1CCN(Cc2cc(CN3CCCC34CCN(C(=O)OC(C(F)(F)F)C(F)(F)F)CC4)cc(C(F)(F)F)c2)CC1 [Example 244]
### (### is ≥ 75%) | # (# is < 25%) | # (# is < 25%) | O=C(OC(C(F)(F)F)C(F)(F)F)N1CCC2(CCCN2Cc2ccc(C(F)(F)F)cc2N2CC3COCC3C2)CC1 (stereo not drawn) [Example 97, 1,1,1,3,3,3-Hexafluoropropan-2-yl 1-(2-(tetrahydro-1H-furo[3,4-c]pyrrol-5(3H)-yl)-4-(trifluoromethyl)benzyl)-1,8-diazaspiro[4.5]decane-8-carboxylate]
### (### is ≥ 75%) | # (# is < 25%) | # (# is < 25%) | O=C(OC(C(F)(F)F)C(F)(F)F)N1CCC2(CCCN2Cc2ccc(Cl)c(C(F)(F)F)c2)CC1 [Example 184, 1,1,1,3,3,3-Hexafluoropropan-2-yl 1-(4-chloro-3-(trifluoromethyl)benzyl)-1,8-diazaspiro[4.5]decane-8-carboxylate]
### (### is ≥ 75%) | # (# is < 25%) | # (# is < 25%) | O=C(OC(C(F)(F)F)C(F)(F)F)N1CCC2(CCCN2Cc2ccc(Cl)cc2N2CCC(F)CC2)CC1 [Example 102, 1,1,1,3,3,3-Hexafluoropropan-2-yl 1-(4-chloro-2-(4-fluoropiperidin-1-yl)benzyl)-1,8-diazaspiro[4.5]decane-8-carboxylate]
### (### is ≥ 75%) | # (# is < 25%) | # (# is < 25%) | O=C(OC(C(F)(F)F)C(F)(F)F)N1CCC2(CCCN2Cc2cccc(N3CC4CCC(C3)O4)c2Cl)CC1 [Example 82, 1,1,1,3,3,3-Hexafluoropropan-2-yl 1-(3-(8-oxa-3-azabicyclo[3.2.1]octan-3-yl)-2-chlorobenzyl)-1,8-diazaspiro[4.5]decane-8-carboxylate]
### (### is ≥ 75%) | # (# is < 25%) | # (# is < 25%) | O=C(O)C1CCN(Cc2cc(C(F)(F)F)ccc2CN2CCCC23CCN(C(=O)OC(C(F)(F)F)C(F)(F)F)CC3)CC1 [Example 238]
### (### is ≥ 75%) | # (# is < 25%) | # (# is < 25%) | O=C(O)C1CCN(c2cc(OC(F)(F)F)ccc2CN2CCCC23CCN(C(=O)OC(C(F)(F)F)C(F)(F)F)CC3)CC1 [Example 248]
### (### is ≥ 75%) | # (# is < 25%) | # (# is < 25%) | CC(=O)N1CCN(c2cc(Cl)ccc2CN2CCCC23CCN(C(=O)OC(C(F)(F)F)C(F)(F)F)CC3)CC1 [Example 99, 1,1,1,3,3,3-Hexafluoropropan-2-yl 1-(2-(4-acetylpiperazin-1-yl)-4-chlorobenzyl)-1,8-diazaspiro[4.5]decane-8-carboxylate]
### (### is ≥ 75%) | # (# is < 25%) | # (# is < 25%) | CN1CCCc2ccc(CN3CCCC34CCN(C(=O)OC(C(F)(F)F)C(F)(F)F)CC4)cc21 [Example 68, 1,1,1,3,3,3-Hexafluoropropan-2-yl 1-((1-methyl-1,2,3,4-tetrahydroquinolin-7-yl)methyl)-1,8-diazaspiro[4.5]decane-8-carboxylate]
# (# is < 25%) | # (# is < 25%) | # (# is < 25%) | O=C(O)C1CCN(C(=O)c2cc(C(F)(F)F)ccc2CN2CCCC23CCN(C(=O)OC(C(F)(F)F)C(F)(F)F)CC3)CC1 [Example 281]
### (### is ≥ 75%) | # (# is < 25%) | # (# is < 25%) | O=C(OC(C(F)(F)F)C(F)(F)F)N1CCC2(CCCN2Cc2ccc(Cl)cc2N2CCCC2)CC1 [Example 76, 1,1,1,3,3,3-Hexafluoropropan-2-yl 1-(4-chloro-2-(pyrrolidin-1-yl)benzyl)-1,8-diazaspiro[4.5]decane-8-carboxylate]
### (### is ≥ 75%) | # (# is < 25%) | # (# is < 25%) | CS(=O)(=O)N1CCN(c2cc(Cl)ccc2CN2CCCC23CCN(C(=O)OC(C(F)(F)F)C(F)(F)F)CC3)CC1 [Example 100, 1,1,1,3,3,3-Hexafluoropropan-2-yl 1-(4-chloro-2-(4-(methylsulfonyl)piperazin-1-yl)benzyl)-1,8-diazaspiro[4.5]decane-8-carboxylate]
### (### is ≥ 75%) | # (# is < 25%) | # (# is < 25%) | O=C(O)C1CCN(c2cc(S(F)(F)(F)(F)F)ccc2CN2CCCC23CCN(C(=O)OC(C(F)(F)F)C(F)(F)F)CC3)CC1 [Example 240]
# (# is < 25%) | # (# is < 25%) | # (# is < 25%) | CC1(C(=O)O)CN(c2cc(C(F)(F)F)ccc2CN2CCC3(CCN(C(=O)OC(C(F)(F)F)C(F)(F)F)CC3)C2)CCO1 (stereo not drawn) [Example 256]
### (### is ≥ 75%) | ### (### is ≥ 75%) | # (# is < 25%) | CCc1cc(CN2CCC3(CCN(C(=O)OC(C(F)(F)F)C(F)(F)F)CC3)C2)ccc1F [Example 152, 1,1,1,3,3,3-Hexafluoropropan-2-yl 2-(3-ethyl-4-fluorobenzyl)-2,8-diazaspiro[4.5]decane-8-carboxylate]
### (### is ≥ 75%) | # (# is < 25%) | # (# is < 25%) | O=C(O)[C@@H]1CCCCN1c1cc(CN2CCCC23CCN(C(=O)OC(C(F)(F)F)C(F)(F)F)CC3)cc(C(F)(F)F)c1 [Example 196, (S)-1-(3-((8-(((1,1,1,3,3,3-Hexafluoropropan-2-yl)oxy)carbonyl)-1,8-diazaspiro[4.5]decan-1-yl)methyl)-5-(trifluoromethyl)phenyl)piperidine-2-carboxylic acid]
### (### is ≥ 75%) | # (# is < 25%) | # (# is < 25%) | O=C(OC(C(F)(F)F)C(F)(F)F)N1CCC2(CCCN2Cc2cccc(N3CCOCC3)c2Cl)CC1 [Example 79, 1,1,1,3,3,3-Hexafluoropropan-2-yl 1-(2-chloro-3-morpholinobenzyl)-1,8-diazaspiro[4.5]decane-8-carboxylate]
### (### is ≥ 75%) | # (# is < 25%) | # (# is < 25%) | CC1(C(=O)O)CCCN(c2cc(CN3CCCC34CCN(C(=O)OC(C(F)(F)F)C(F)(F)F)CC4)cc(C(F)(F)F)c2)C1 (stereo not drawn) [Example 221]
### (### is ≥ 75%) | # (# is < 25%) | # (# is < 25%) | O=C(OC(C(F)(F)F)C(F)(F)F)N1CCC2(CCCN2Cc2ccc(Cl)c(OCCF)c2)CC1 [Example 28, 1,1,1,3,3,3-Hexafluoropropan-2-yl 1-(4-chloro-3-(2-fluoroethoxy)benzyl)-1,8-diazaspiro[4.5]decane-8-carboxylate]
### (### is ≥ 75%) | # (# is < 25%) | # (# is < 25%) | O=C(OC(C(F)(F)F)C(F)(F)F)N1CCC2(CCCN2Cc2ccc(C(F)(F)F)c(Cl)c2)CC1 [Example 183, 1,1,1,3,3,3-Hexafluoropropan-2-yl 1-(3-chloro-4-(trifluoromethyl)benzyl)-1,8-diazaspiro[4.5]decane-8-carboxylate]
# (# is < 25%) | # (# is < 25%) | # (# is < 25%) | CS(=O)(=O)NC1CCN(c2cc(C(F)(F)F)ccc2CN2CCCC23CCN(C(=O)OC(C(F)(F)F)C(F)(F)F)CC3)CC1 [Example 94, 1,1,1,3,3,3-Hexafluoropropan-2-yl 1-(2-(4-(methylsulfonamido)piperidin-1-yl)-4-(trifluoromethyl)benzyl)-1,8-diazaspiro[4.5]decane-8-carboxylate]
### (### is ≥ 75%) | # (# is < 25%) | # (# is < 25%) | O=C(OC(C(F)(F)F)C(F)(F)F)N1CCC2(CCCN2Cc2cc(N3CC4COCC4C3)cc(C(F)(F)F)c2)CC1 (stereo not drawn) [Example 46, 1,1,1,3,3,3-Hexafluoropropan-2-yl 1-(3-(tetrahydro-1H-furo[3,4-c]pyrrol-5(3H)-yl)-5-(trifluoromethyl)benzyl)-1,8-diazaspiro[4.5]decane-8-carboxylate]

Source: US10781211B2, “Spirocycle compounds and methods of making and using same” (Lundbeck La Jolla Research Center, Inc., priority 2016, dated 2020)
